From patent publication US5773424A, “Treatment of toxoplasmosis” (priority 1994, dated 1998)

How the values were obtained:
[1] = test system: extracts of Toxoplasma gondii; assay: Inhibition of phosphorylation of NBMPR (formation of NBMPR-P); format: biochemical
Protocol: (§1) Enzyme assay. […] Incubation was carried out at 37° C.

[2] = test system: extracts of Toxoplasma gondii; assay: Inhibition of phosphorylation of adenosine (or inosine) to nucleoside 5'-monophosphate; format: biochemical; conditions: T. gondii extract
Protocol: as §1

[3] = test system: extracts from mouse liver; assay: Inhibition of phosphorylation of adenosine; format: biochemical; conditions: mouse liver extract
Protocol: as §1

[4] = test system: extracts from human liver; assay: Inhibition of phosphorylation of adenosine; format: biochemical; conditions: human liver extract
Protocol: as §1

extracts of human liver = assay: Inhibition of phosphorylation of NBMPR; format: biochemical
Protocol: as §1

[5] = target: T. gondii adenosine kinase (Toxoplasma gondii, UniProt Q9TVW2); assay: biochemical; conditions: AppKi for inhibition of T. gondii adenosine kinase, 5 μM adenosine; ± range, at least two estimations
[6] = substrate: Nc1ncnc2c1ncn2[C@@H]1O[C@H](CO)[C@@H](O)[C@H]1O; assay: cells, lysate or membranes named; conditions: other: adenosine as substrate; pH 8.0
Protocol: Preparation of cytosol extracts. For the structure activity relationships studies, approximately 5×10^8 T. gondii were suspended in 1.2 ml of 50 mM N-2-hydroxyethylpiperazine-N'-2-ethanesulfonic acid (HEPES)-Cl (pH 8.0)/1 mM dithiothreitol and homogenized for 30 seconds at setting 10, using a Brinnmann Instruments Polytron homogenizer fitted with a PTA 7K1 probe. The homogenate was then centrifuged at approximately 116,000 g for 1 hour at 5° and the supernatant (cytosol extract) collected and used as the enzyme source. Fresh cytosol extracts were prepared for each experiment.
Adenosine kinase assay. T. gondii adenosine kinase activity was measured by following the formation of [^14 C]AMP from [^14 C]adenosine and ATP. […]
Reactions were started by the addition of [8-^14 C]adenosine, incubated at 37° for 10 minutes and terminated by placing the reaction tubes in a boiling water bath for 2 minutes. […] The substrate and product spots (which accounted for all of the radioactivity on the plates) were identified by UV quenching, cut out, and the radioactivity quantitated by liquid scintillation counting in 20 ml of Scintilene, using a Packard 460 scintillation counter. […] Enzyme velocity was calculated by multiplying the fraction of AMP formed from adenosine times the amount of adenosine in the assay, and dividing by the incubation time. […]

Molecule | % Inhibition of phosphorylation of NBMPR, T. gondii ([1]; 25 μM) | % Inhibition of phosphorylation of NBMPR, T. gondii ([1]; 50 μM) | % Inhibition of phosphorylation of NBMPR, T. gondii ([1]; 100 μM) | Effect on the phosphorylation of adenosine, in words [2] | Effect on the phosphorylation of adenosine, in words [3] | Effect on the phosphorylation of adenosine, in words [4] | % Inhibition of phosphorylation of NBMPR, Human Liver (extracts of human liver; 25 μM) | % Inhibition of phosphorylation of NBMPR, Human Liver (extracts of human liver; 50 μM) | % Inhibition of phosphorylation of NBMPR, Human Liver (extracts of human liver; 100 μM) | Ki [5] | % Inhibition of phosphorylation of NBMPR, T. gondii ([1]; 250 μM) | % Inhibition of phosphorylation of NBMPR, T. gondii ([1]; 500 μM) | % Inhibition of phosphorylation of NBMPR, Human Liver (extracts of human liver; 250 μM) | % Inhibition of phosphorylation of NBMPR, Human Liver (extracts of human liver; 500 μM) | Km [6]
Nc1nc2c(nc(N)n2[C@@H]2O[C@H](CO)[C@@H](O)[C@H]2O)c(=O)[nH]1 [8-Aminoguanosine, reference compound] | 0% | 0% | 0% | no effect | no effect | no effect | 0% | 0% | 0% |  |  |  |  |  | 
Nc1ncnc2c([C@@H]3O[C@H](CO)[C@@H](O)[C@H]3O)n[nH]c12 [Compound 81, 8-Aza-9-deazaadenosine (formycin A)] |  |  | 0% | no effect | no effect | no effect |  |  | 0% | 1400 µM | 0% | 0% | 0% | 0% | 
T. gondii adenosine kinase (Toxoplasma gondii) (protein) MAVDSSNSATGPMRVFAIGNPILDLVAEVPSSFLDEFFLKRGDATLATPEQMRIYSTLDQFNPTSLPGGSALNSVRVVQKLLRKPGSAGYMGAIGDDPRGQVLKELCDKEGLATRFMVAPGQSTGVCAVLINEKERTLCTHLGACGSFRLPEDWTTFASGALIFYATAYTLTATPKNALEVAGYAHGIPNAIFTLNLSAPFCVELYKDAMQSLLLHTNILFGNEEEFAHLAKVHNLVAAEKTALSTANKEHAVEVCTGALRLLTAGQNTGATKLVVMTRGHNPVIAAEQTADGTVVVHEVGVPVVAAEKIVDTNGAGDAFVGGFLYALSQGKTVKQCIMCGNACAQDVIQHVGFSLSFTSLPC |  |  |  |  |  |  |  |  |  |  |  |  |  |  | 5 µM
